In patent US9061013B2, “Isoxazoline derivatives as antiparasitic agents” (Zoetis LLC, priority 2011, dated 2015):

Tested on: Aedes aegypti
Experiment: Mosquito (Aedes aegypti) Larval Assay
Details: mosquito larvae in DMSO/water solution, death or paralysis following 24 hour incubation at 22° C., read-out: Minimum Efficacious Dose (MED)
Description: Mosquito (Aedes aegypti) Larval Assay
Formula (1) compounds were dissolved in DMSO and water. Five instar mosquito larvae were added to the solution and observed for death or paralysis following a 24 hour incubation period at 22° C. Endpoint data was recorded as Minimum Efficacious Dose (MED) in μM.

Work on `CNC(=O)C1CC(O)(c2ccc(C3=NOC(c4cc(Cl)c(Cl)c(Cl)c4)(C(F)(F)F)C3)cc2)C1` (centres unmarked) [Example 3, 3-hydroxy-3-{4-[5-(3,4,5-trichloro-phenyl)-5-trifluoromethyl-4,5-dihydro-isoxazol-3-yl]-phenyl}-cyclobutanecarboxylic acid methylamide] yielded a minimal effective concentration of no more than 100 µM.

Compound `CN(C)C(=O)C1CC(F)(c2ccc(C3=NOC(c4cc(Cl)c(Cl)c(Cl)c4)(C(F)(F)F)C3)cc2)C1` (centres unmarked) [Example 11, 3-fluoro-3-{4-[5-(3,4,5-trichloro-phenyl)-5-trifluoromethyl-4,5-dihydro-isoxazol-3-yl]-phenyl}-cyclobutanecarboxylic acid dimethylamide] has a minimal effective concentration of no more than 100 µM.

In the case of `O=C(NCC(F)(F)F)C1CN(c2ccc(C3=NOC(c4cc(Cl)c(Cl)c(Cl)c4)(C(F)(F)F)C3)cc2Cl)C1` (centres unmarked) [Example 21, 1-{2-chloro-4-[5-(3,4,5-trichloro-phenyl)-5-trifluoromethyl-4,5-dihydro-isoxazol-3-yl]-phenyl}-azetidine-3-carboxylic acid (2,2,2-trifluoro-ethyl)-amide], the minimal effective concentration is reported as no more than 100 µM.

Compound `CN(C)C(=O)C1CN(c2ccc(C3=NOC(c4cc(Cl)c(Cl)c(Cl)c4)(C(F)(F)F)C3)cc2Cl)C1` (centres unmarked) [Example 23, 1-{2-chloro-4-[5-(3,4,5-trichloro-phenyl)-5-trifluoromethyl-4,5-dihydro-isoxazol-3-yl]-phenyl}-azetidine-3-carboxylic acid dimethylamide] has a minimal effective concentration of no more than 100 µM.

Compound `O=C(CNC(=O)C1CC(F)(c2ccc(C3=NOC(c4cc(Cl)c(Cl)c(Cl)c4)(C(F)(F)F)C3)cc2)C1)NCC(F)(F)F` (centres unmarked) [Example 15, 3-fluoro-N-(2-oxo-2-((2,2,2-trifluoroethyl)amino)ethyl)-3-(4-(5-(3,4,5-trichlorophenyl)-5-(trifluoromethyl)-4,5-dihydroisoxazol-3-yl)phenyl)cyclobutanecarboxamide] has a minimal effective concentration of no more than 100 µM.

`O=C(NC1CC1)C1CC(O)(c2ccc(C3=NOC(c4cc(Cl)c(Cl)c(Cl)c4)(C(F)(F)F)C3)cc2)C1` (centres unmarked) [Example 2, 3-hydroxy-3-{4-[5-(3,4,5-trichloro-phenyl)-5-trifluoromethyl-4,5-dihydro-isoxazol-3-yl]-phenyl}-cyclobutanecarboxylic acid cyclopropylamide] gave a minimal effective concentration of no more than 100 µM.

Work on `O=C(NCC(F)(F)F)C1CC(F)(c2ccc(C3=NOC(c4cc(Cl)c(Cl)c(Cl)c4)(C(F)(F)F)C3)cc2)C1` (centres unmarked) [Example 7, 3-fluoro-3-{4-[5-(3,4,5-trichloro-phenyl)-5-trifluoromethyl-4,5-dihydro-isoxazol-3-yl]-phenyl}-cyclobutanecarboxylic acid (2,2,2-trifluoro-ethyl)-amide] yielded a minimal effective concentration of no more than 100 µM.

`O=C(NCC(F)(F)F)C1CC(O)(c2ccc(C3=NOC(c4cc(Cl)c(Cl)c(Cl)c4)(C(F)(F)F)C3)cc2)C1` (centres unmarked) [Example 1, 3-hydroxy-3-{4-[5-(3,4,5-trichloro-phenyl)-5-trifluoromethyl-4,5-dihydro-isoxazol-3-yl]-phenyl}-cyclobutanecarboxylic acid (2,2,2-trifluoro-ethyl)-amide] gave a minimal effective concentration of no more than 100 µM.

With `O=C(NCC(F)(F)F)C1CN(c2ccc(C3=NOC(c4cc(Cl)c(Cl)c(Cl)c4)(C(F)(F)F)C3)cc2)C1` (centres unmarked) [Example 18, 1-{4-[5-(3,4,5-trichloro-phenyl)-5-trifluoromethyl-4,5-dihydro-isoxazol-3-yl]-phenyl}-azetidine-3-carboxylic acid (2,2,2-trifluoro-ethyl)-amide] the minimal effective concentration was no more than 100 µM.

Compound `CNC(=O)C1CN(c2ccc(C3=NOC(c4cc(Cl)c(Cl)c(Cl)c4)(C(F)(F)F)C3)cc2)C1` (centres unmarked) [Example 17, 1-{4-[5-(3,4,5-trichloro-phenyl)-5-trifluoromethyl-4,5-dihydro-isoxazol-3-yl]-phenyl}-azetidine-3-carboxylic acid methylamide] has a minimal effective concentration of no more than 100 µM.

In the case of `CC(C)NC(=O)C1CC(F)(c2ccc(C3=NOC(c4cc(Cl)c(Cl)c(Cl)c4)(C(F)(F)F)C3)cc2)C1` (centres unmarked) [Example 13], the minimal effective concentration is reported as no more than 100 µM.

Work on `CN(C)C(=O)C1CC(O)(c2ccc(C3=NOC(c4cc(Cl)c(Cl)c(Cl)c4)(C(F)(F)F)C3)cc2)C1` (centres unmarked) [Example 4, 3-hydroxy-3-{4-[5-(3,4,5-trichloro-phenyl)-5-trifluoromethyl-4,5-dihydro-isoxazol-3-yl]-phenyl}-cyclobutanecarboxylic acid dimethylamide] yielded a minimal effective concentration of no more than 100 µM.

`O=C(NC1CC(F)(c2ccc(C3=NOC(c4cc(Cl)c(Cl)c(Cl)c4)(C(F)(F)F)C3)cc2)C1)C1CC1` (centres unmarked) [Example 24, N-(3-fluoro-3-(4-(5-(3,4,5-trichlorophenyl)-5-(trifluoromethyl)-4,5-dihydroisoxazol-3-yl)phenyl)cyclobutyl)cyclopropanecarboxamide] was tested, and the minimal effective concentration was no more than 100 µM.

`O=C(NC1CC1)C1CN(c2ccc(C3=NOC(c4cc(Cl)c(Cl)c(Cl)c4)(C(F)(F)F)C3)cc2)C1` (centres unmarked) [Example 16, 1-{4-[5-(3,4,5-trichloro-phenyl)-5-trifluoromethyl-4,5-dihydro-isoxazol-3-yl]-phenyl}-azetidine-3-carboxylic acid cyclopropylamide] gave a minimal effective concentration of no more than 100 µM.

`O=C(NC1CC1)C1CN(c2ccc(C3=NOC(c4cc(Cl)c(Cl)c(Cl)c4)(C(F)(F)F)C3)cc2Cl)C1` (centres unmarked) [Example 22, 1-{2-chloro-4-[5-(3,4,5-trichloro-phenyl)-5-trifluoromethyl-4,5-dihydro-isoxazol-3-yl]-phenyl}-azetidine-3-carboxylic acid cyclopropylamide] gave a minimal effective concentration of no more than 100 µM.

With `CN(C)C(=O)C1CN(c2ccc(C3=NOC(c4cc(Cl)c(Cl)c(Cl)c4)(C(F)(F)F)C3)cc2)C1` (centres unmarked) [Example 19, 1-{4-[5-(3,4,5-trichloro-phenyl)-5-trifluoromethyl-4,5-dihydro-isoxazol-3-yl]-phenyl}azetidine-3-carboxylic acid dimethylamide] the minimal effective concentration was no more than 100 µM.

In the case of `CNC(=O)C1CN(c2ccc(C3=NOC(c4cc(Cl)c(Cl)c(Cl)c4)(C(F)(F)F)C3)cc2Cl)C1` (centres unmarked) [Example 20, 1-{2-chloro-4-[5-(3,4,5-trichloro-phenyl)-5-trifluoromethyl-4,5-dihydro-isoxazol-3-yl]-phenyl}-azetidine-3-carboxylic acid methylamide], the minimal effective concentration is reported as no more than 100 µM.

Work on `CS(=O)(=O)CC(=O)NC1CC(F)(c2ccc(C3=NOC(c4cc(Cl)c(Cl)c(Cl)c4)(C(F)(F)F)C3)cc2)C1` (centres unmarked) [Example 25, N-(3-fluoro-3-(4-(5-(3,4,5-trichlorophenyl)-5-(trifluoromethyl)-4,5-dihydroisoxazol-3-yl)phenyl)cyclobutyl)-2-(methylsulfonyl)acetamide] yielded a minimal effective concentration of no more than 100 µM.

With `CNC(=O)C1CC(F)(c2ccc(C3=NOC(c4cc(Cl)c(Cl)c(Cl)c4)(C(F)(F)F)C3)cc2)C1` (centres unmarked) [Example 10, 3-fluoro-3-{4-[5-(3,4,5-trichloro-phenyl)-5-trifluoromethyl-4,5-dihydro-isoxazol-3-yl]-phenyl}-cyclobutanecarboxylic acid methylamide] the minimal effective concentration was no more than 100 µM.

Work on `CCNC(=O)C1CC(F)(c2ccc(C3=NOC(c4cc(Cl)c(Cl)c(Cl)c4)(C(F)(F)F)C3)cc2)C1` (centres unmarked) [Example 14, 3-fluoro-3-{4-[5-(3,4,5-trichloro-phenyl)-5-trifluoromethyl-4,5-dihydro-isoxazol-3-yl]-phenyl}-cyclobutanecarboxylic acid ethylamide] yielded a minimal effective concentration of no more than 100 µM.
